According to patent US20250002471A1 (Gilead Sciences, Inc., priority 2020, published 2025):
One block for each compound: values may come before it.

Assays:
TLR7 = target: T1, TLR7 (Homo sapiens, UniProt Q9NYK1); assay: Human PBMC cell-based assay, TLR7 agonist GS-986 stimulation, cytokine (IL-6 and IFNα) readout; settings: human PBMCs, GS-986 400 nM, 6 hours; Table 26; read-out: TLR-7 EC50
T1 construct: lymphocytes, monocytes and dendritic cells that express TLR7, TLR8 and TLR9; endogenous in cells; host or cells: human PBMCs from healthy donors
T1 sequence (Q9NYK1 27-1049): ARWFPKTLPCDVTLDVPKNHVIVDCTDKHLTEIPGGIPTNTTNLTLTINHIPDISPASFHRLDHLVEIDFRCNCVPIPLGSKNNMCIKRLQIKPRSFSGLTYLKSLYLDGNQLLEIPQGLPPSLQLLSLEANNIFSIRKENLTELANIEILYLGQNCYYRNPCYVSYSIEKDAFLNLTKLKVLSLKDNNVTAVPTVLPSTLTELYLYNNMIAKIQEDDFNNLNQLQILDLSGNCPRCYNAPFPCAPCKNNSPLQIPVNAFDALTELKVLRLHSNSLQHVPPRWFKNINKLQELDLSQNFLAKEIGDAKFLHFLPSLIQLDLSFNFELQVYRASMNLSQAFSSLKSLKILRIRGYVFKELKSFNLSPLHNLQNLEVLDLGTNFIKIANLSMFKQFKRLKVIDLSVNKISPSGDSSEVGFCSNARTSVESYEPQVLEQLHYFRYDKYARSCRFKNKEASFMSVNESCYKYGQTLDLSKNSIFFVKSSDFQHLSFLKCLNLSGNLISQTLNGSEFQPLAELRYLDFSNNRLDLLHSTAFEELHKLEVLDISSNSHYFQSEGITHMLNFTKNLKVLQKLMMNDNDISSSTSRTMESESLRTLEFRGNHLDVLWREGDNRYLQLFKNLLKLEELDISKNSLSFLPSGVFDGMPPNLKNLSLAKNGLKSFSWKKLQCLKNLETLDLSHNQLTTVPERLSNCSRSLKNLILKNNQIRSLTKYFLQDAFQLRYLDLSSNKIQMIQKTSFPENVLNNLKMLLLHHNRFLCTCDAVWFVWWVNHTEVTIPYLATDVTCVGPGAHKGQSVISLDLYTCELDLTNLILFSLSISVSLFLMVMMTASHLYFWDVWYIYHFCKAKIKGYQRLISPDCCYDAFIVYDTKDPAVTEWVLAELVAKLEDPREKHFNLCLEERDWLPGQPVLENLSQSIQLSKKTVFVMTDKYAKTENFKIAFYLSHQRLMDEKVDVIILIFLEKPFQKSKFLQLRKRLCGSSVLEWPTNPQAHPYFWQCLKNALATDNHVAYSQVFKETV
Outline: (§1)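 Cryopreserved healthy-donor PBMCs (100,000 cells/well, RPMI-1640 + 10% FBS) preincubated 1 h at 37 °C with antagonist (10-point dose response), then stimulated 6 h with GS-986 (400 nM final, TLR7) or ODN-2216 (3 μM final, TLR9). Supernatant IL-6 and IFNα measured by electrochemiluminescence immunoassay; EC50 from sigmoidal fit.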

TLR9 = target: T2, TLR9 (Homo sapiens, UniProt Q9NR96); assay: Human PBMC cell-based assay, TLR9 agonist ODN-2216 stimulation, cytokine (IL-6 and IFNα) readout; settings: human PBMCs, ODN-2216 3 μM, 6 hours; Table 26; read-out: TLR-9 EC50
T2 construct: lymphocytes, monocytes and dendritic cells that express TLR7, TLR8 and TLR9; endogenous in cells; host or cells: human PBMCs from healthy donors
T2 sequence (Q9NR96 26-1032): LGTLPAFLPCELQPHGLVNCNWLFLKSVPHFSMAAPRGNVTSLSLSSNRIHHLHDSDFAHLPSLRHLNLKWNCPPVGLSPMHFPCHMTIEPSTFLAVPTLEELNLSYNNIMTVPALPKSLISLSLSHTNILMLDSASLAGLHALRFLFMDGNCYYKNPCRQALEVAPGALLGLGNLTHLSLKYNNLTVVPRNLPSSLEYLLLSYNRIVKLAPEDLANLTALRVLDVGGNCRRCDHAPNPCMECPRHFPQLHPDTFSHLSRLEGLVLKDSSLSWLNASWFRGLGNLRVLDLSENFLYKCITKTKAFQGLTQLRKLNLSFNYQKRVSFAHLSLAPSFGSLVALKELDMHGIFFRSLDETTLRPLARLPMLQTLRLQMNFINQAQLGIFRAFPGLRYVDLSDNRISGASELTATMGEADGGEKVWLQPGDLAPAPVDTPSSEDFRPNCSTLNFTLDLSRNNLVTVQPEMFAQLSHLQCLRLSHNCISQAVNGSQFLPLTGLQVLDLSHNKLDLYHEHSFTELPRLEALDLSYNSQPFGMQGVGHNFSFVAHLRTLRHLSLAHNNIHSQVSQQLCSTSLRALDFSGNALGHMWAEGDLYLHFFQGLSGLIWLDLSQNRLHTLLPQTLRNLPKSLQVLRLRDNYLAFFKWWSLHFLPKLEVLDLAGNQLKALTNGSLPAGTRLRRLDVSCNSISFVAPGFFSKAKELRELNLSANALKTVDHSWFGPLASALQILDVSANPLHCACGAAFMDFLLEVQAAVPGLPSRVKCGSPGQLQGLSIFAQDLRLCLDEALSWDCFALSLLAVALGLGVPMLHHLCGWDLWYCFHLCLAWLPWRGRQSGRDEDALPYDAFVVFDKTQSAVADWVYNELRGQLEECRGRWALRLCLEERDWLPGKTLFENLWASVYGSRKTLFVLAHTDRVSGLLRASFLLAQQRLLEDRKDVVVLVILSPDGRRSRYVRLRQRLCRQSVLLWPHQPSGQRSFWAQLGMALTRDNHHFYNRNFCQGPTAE
Outline: as §1

SMILES: Cc1c(-c2cnn(C)c2)[nH]c2cc(-c3ccc(N4CCNCC4)nc3)ccc12 [Example 87]
EC50 (TLR7): 2180 nM | EC50 (TLR9): 583 nM

SMILES: Cc1cc(-c2[nH]c3cc(-c4ccc(N5CCC[C@@H](N)C5)nc4)ccc3c2C)cc(C)n1 [Example 25]
EC50 (TLR7): 5.9 nM | EC50 (TLR9): 39.1 nM

SMILES: Cc1cc(-c2[nH]c3cc(-c4ccc(N5CCNCC5)nc4)ncc3c2C)cc(C)n1 [Example 151]
EC50 (TLR7): 867 nM | EC50 (TLR9): 537 nM

SMILES: Cc1cc(-c2[nH]c3cc(C(=O)N4CCC5(CCNCC5)CC4)ccc3c2C)cc(C)n1 [Example 180]
EC50 (TLR7): > 1000 nM | EC50 (TLR9): 835 nM

SMILES: Cc1c(-c2cn(C)c(=O)n(C)c2=O)[nH]c2cc(-c3ccc(N4CCNCC4)nc3)ccc12 [Example 91]
EC50 (TLR7): 104 nM | EC50 (TLR9): 540 nM

SMILES: Cc1cc(-c2[nH]c3cc(-c4nc(C5CCNCC5)cs4)ccc3c2C)cc(C)n1 [Example 186, 2-(2-(2,6-dimethylpyridin-4-yl)-3-methyl-1H-indol-6-yl)-4-(piperidin-4-yl)thiazole]
EC50 (TLR7): 121 nM | EC50 (TLR9): 225 nM

SMILES: Cc1cc(-c2[nH]c3cc(-c4ccc(C(=O)N5CC6CNCC6C5)cc4)ccc3c2C)cc(C)n1 (stereo not drawn) [Example 126]
EC50 (TLR7): 48 nM | EC50 (TLR9): 294 nM

SMILES: Cc1cc(-c2[nH]c3cc(-c4cccc(C(=O)N5CC[C@H](N)C5)c4)ccc3c2C)cc(C)n1 [Example 119, (S)-(3-aminopyrrolidin-1-yl)(3-(2-(2,6-dimethylpyridin-4-yl)-3-methyl-1H-indol-6-yl)phenyl)methanone]
EC50 (TLR7): 54.1 nM | EC50 (TLR9): 193 nM

SMILES: Cc1cc(-c2[nH]c3cc(C4CCNC4)ccc3c2C)cc(C)n1 (stereo not drawn) [Example 54]
EC50 (TLR7): 1390 nM | EC50 (TLR9): 69.4 nM

SMILES: Cc1cc(-c2[nH]c3nc(-c4ccc(N5CCNCC5)nc4)ccc3c2C)cc(C)n1 [Example 150]
EC50 (TLR7): 760 nM | EC50 (TLR9): 72.3 nM

SMILES: Cc1cc(-c2[nH]c3cc(-c4cccc5c4CCNC5)ccc3c2C)cc(C)n1 [Example 62, 5-(2-(2,6-dimethylpyridin-4-yl)-3-methyl-1H-indol-6-yl)-1,2,3,4-tetrahydroisoquinoline]
EC50 (TLR7): 607 nM | EC50 (TLR9): 180 nM

SMILES: Cc1cncc(-c2[nH]c3cc(-c4ccc(N5CCNCC5)nc4)ccc3c2C)c1C [Example 86]
EC50 (TLR7): 2670 nM | EC50 (TLR9): 1430 nM

SMILES: Cc1cc(-c2[nH]c3cc(-c4ccc(N5CCN(CCN(C)C)CC5)nc4)ccc3c2C)cc(C)n1 [Example 114, 2-(4-(5-(2-(2,6-dimethylpyridin-4-yl)-3-methyl-1H-indol-6-yl)pyridin-2-yl)piperazin-1-yl)-N,N-dimethylethan-1-amine]
EC50 (TLR7): 21.6 nM | EC50 (TLR9): 36.1 nM

SMILES: Cc1cc(-c2[nH]c3cc(-c4ccc(N5CC[C@H]6CNC[C@H]65)nc4)ccc3c2C)cc(C)n1 [Example 33]
EC50 (TLR7): 51 nM | EC50 (TLR9): 79.9 nM

SMILES: Cc1cc(-c2[nH]c3cc(-c4ccc(CN5CCNCC5)cc4)ccc3c2C)cc(C)n1 [Example 7]
EC50 (TLR7): 170 nM | EC50 (TLR9): 87.2 nM

SMILES: Cc1cc(-c2[nH]c3cc(-c4ccc(N5CC[C@@H](N)C5)nc4)ccc3c2C)cc(C)n1 [Example 31]
EC50 (TLR7): 8.3 nM | EC50 (TLR9): 13.5 nM

SMILES: Cc1c(-c2cc(C)c3ncnn3c2)[nH]c2cc(C3CCNCC3)ccc12 [Example 51]
EC50 (TLR7): 35.8 nM | EC50 (TLR9): 1670 nM

SMILES: Cc1cc(-c2[nH]c3cc(-c4ccc(N5CCN(CC(C)O)CC5)nc4)ccc3c2C)cc(C)n1 (stereo not drawn) [Example 118]
EC50 (TLR7): 5.8 nM | EC50 (TLR9): 58.7 nM

Further lines, results first:

EC50 (TLR7): > 1000 nM | EC50 (TLR9): 1880 nM
SMILES: Cc1cc(-c2[nH]c3cc(C(=O)NC4CCNCC4)ccc3c2C)cc(C)n1 [Example 178, 2-(2,6-dimethylpyridin-4-yl)-3-methyl-N-(piperidin-4-yl)-1H-indole-6-carboxamide]

EC50 (TLR7): 55.5 nM | EC50 (TLR9): 111 nM
SMILES: Cc1cc(-c2[nH]c3cc(-c4ccc(C(=O)N5CC[C@@H](N)C5)cc4)ccc3c2C)cc(C)n1 [Example 124]

EC50 (TLR7): 1730 nM | EC50 (TLR9): 217 nM
SMILES: CC(=O)c1c(-c2cc(C)nc(C)c2)[nH]c2cc(-c3ccc(N4CCNCC4)nc3)ccc12 [Example 102, 1-(2-(2,6-dimethylpyridin-4-yl)-6-(6-(piperazin-1-yl)pyridin-3-yl)-1H-indol-3-yl)ethan-1-one]

EC50 (TLR7): 12.9 nM | EC50 (TLR9): 69.6 nM
SMILES: Cc1cc(-c2[nH]c3cc(-c4ccc(N5CCN(C)CC5)nc4)ccc3c2C)cc(C)n1 [Example 41, 2-(2,6-dimethylpyridin-4-yl)-3-methyl-6-(6-(4-methylpiperazin-1-yl)pyridin-3-yl)-1H-indole]

EC50 (TLR7): 102 nM | EC50 (TLR9): 19.3 nM
SMILES: Cc1cc(-c2[nH]c3cc(-c4ccc5c(c4)CCNC5)ccc3c2C)cc(C)n1 [Example 13]

EC50 (TLR7): 31.6 nM | EC50 (TLR9): 122 nM
SMILES: Cc1cc(-c2[nH]c3cc(-c4ccc(N5CC6(CNCCO6)C5)nc4)ccc3c2C)cc(C)n1 [Example 29]

EC50 (TLR7): 121 nM | EC50 (TLR9): 242 nM
SMILES: Cc1cc(-c2[nH]c3cc(-c4ccc5[nH]cnc5c4)ccc3c2C)cc(C)n1 [Example 44]

EC50 (TLR7): 12 nM | EC50 (TLR9): 1920 nM
SMILES: CCc1c(-c2cc(C)c3ncnn3c2)[nH]c2cc(C3CCNCC3)ccc12 [Example 52]

EC50 (TLR7): 30.5 nM | EC50 (TLR9): 42.3 nM
SMILES: Cc1cc(-c2[nH]c3cc(-c4ccc(N5CCN(C(=O)C67CNC(C6)C7)CC5)nc4)ccc3c2C)cc(C)n1 [Example 140]

EC50 (TLR7): 3.4 nM | EC50 (TLR9): 124 nM
SMILES: Cc1cc(-c2[nH]c3cc(-c4ccc(N5CCN(CCO)CC5)nc4)ccc3c2C2CC2)cc(C)n1 [Example 143]

EC50 (TLR7): 108 nM | EC50 (TLR9): 217 nM
SMILES: Cc1cc(-c2[nH]c3cc(-c4nc(C5CCNCC5)no4)ccc3c2C)cc(C)n1 [Example 189]

EC50 (TLR7): 778 nM | EC50 (TLR9): 756 nM
SMILES: Cc1c(-c2cnc(C(F)(F)F)nc2)[nH]c2cc(-c3ccc(N4CCNCC4)nc3)ccc12 [Example 83]

EC50 (TLR7): 44.5 nM | EC50 (TLR9): 32.1 nM
SMILES: Cc1cc(-c2[nH]c3cc(-c4ccc(N5CCN(C(=O)[C@@H]6CCCN6C)CC5)nc4)ccc3c2C)cc(C)n1 [Example 108]

EC50 (TLR7): 394 nM | EC50 (TLR9): 189 nM
SMILES: Cc1cc(-c2[nH]c3cc(-c4ccc(N5CC[N+](CCN(C)C)(CCN(C)C)CC5)nc4)ccc3c2C)cc(C)n1 [Example 115, 1,1-bis(2-(dimethylamino)ethyl)-4-(5-(2-(2,6-dimethylpyridin-4-yl)-3-methyl-1H-indol-6-yl)pyridin-2-yl)piperazin-1-ium]

EC50 (TLR7): 35.1 nM | EC50 (TLR9): 45.7 nM
SMILES: Cc1cc(-c2[nH]c3cc(-c4ccc(N5CCCNCC5)nc4)ccc3c2C)cc(C)n1 [Example 103, 6-(6-(1,4-diazepan-1-yl)pyridin-3-yl)-2-(2,6-dimethylpyridin-4-yl)-3-methyl-1H-indole]
